Legend:
[1] = EPOCH test of oral fluid samples from cannabis users; type: in vivo, human
Source text: Informed consent was obtained from all subjects (cannabis smoker […]). Cannabis users were asked to take saliva samples right after cannabis smoking. Specifically, they were instructed to take a disposable swab (diameter, 1 cm; length, 1.5 cm) into the mouth and roll it for about one minute. The swab was then placed into the sample processing kit. Control samples were collected in the same manner from volunteers who self-declared no history of cannabis use. For the time-course monitoring, three cannabis smokers collected saliva samples hourly after their last smoking. Cylindrical saliva swabs were purchased (SalivaBio Oral Swab, Salimetrics, USA). These swabs were cut in the middle of their height to fit into the sample processing kit. Each halved swab collected about 0.5 mL of saliva.
Next, EPOCH was used for onsite THC detection. Oral fluid samples from recreational cannabis users (40 cannabis smokers and three THC jelly users) were collected within 10 minutes of product consumption and then tested. As a control, oral fluid samples were also assessed from non-cannabis users (13 traditional tobacco smokers and 30 non-smokers) without a history of cannabis use. […] We observed no significant difference between male and female subjects in any of the cohorts (P>0.05, two-sided Mann-Whitney test; FIG. 5C).
We also monitored how THC levels changed over time after cannabis smoking. In this case, oral fluid samples were collected hourly after the inhalation and subjected to the EPOCH tests.

[2] = system: AuNPAb (THC antibody-coated gold nanoparticles); test: isothermal titration calorimetry of binding to AuNPAb

CCCCCc1cc(O)c2c(c1)OC(C)(C)[C@@H]1CCC(C)=C[C@@H]21 [THC, Δ^9-tetrahydrocannabinol]
oral THC concentration in all cannabis-user samples ([1]; 43 cannabis users shortly after consumption, versus regulatory guideline): > 1 ng/mL
half-life of THC in saliva ([1]; after cannabis smoking, hourly samples, three users, single-phase exponential decay): 1.4 h
oral THC concentration (average/median) ([1]; cannabis smokers, oral fluid collected within 10 minutes of consumption): 478 ng/mL
half-life ([1]; human, saliva, inhaled, after cannabis smoking, hourly samples, three users, single-phase exponential decay, read-out: half-life of THC in saliva (converted)): 1.4 h
concentration at 6 h ([1]; human, saliva, po, six hours after cannabis smoking, read-out: oral THC level): > 1 ng/mL
association constant Ka with AuNPAb [2]: 0.074 nM⁻¹
